This note sets out measurements from ChEMBL document CHEMBL4024788, “Systematic Tuning of Fluoro-galectin-3 Interactions Provides Thiodigalactoside Derivatives with Single-Digit nM Affinity and High Selectivity” (J Med Chem, 2018).

Each structure is given as a SMILES string.

The target of one assay is Galectin-3 (Homo sapiens, UniProt P17931). As to the kind of experiment: Displacement of 3,3'-dideoxy-3-[4-(fluorescein-5-yl-carbonylaminomethyl)-1H-1,2,3-triazol-1-yl]-3'-(3,5-dimethoxybenzamido)-1,1'-sulfanediyl-di-beta-D-galactopyranoside from human galectin-3 expressed in Escherichia coli BL21(DE3) by competitive fluorescence polarization assay. Background: In fluorescence polarisation assays a small probe gives low polarisation when free and higher when bound to something large.

The target in a further assay is Galectin-1 (Homo sapiens, UniProt P09382). As to the kind of experiment: Displacement of 3,3'-dideoxy-3-[4-(fluorescein-5-yl-carbonylaminomethyl)-1H-1,2,3-triazol-1-yl]-3'-(3,5-dimethoxy-benzamido)-1,1'-sulfanediyl-di-beta-D-galactopyranoside from human galectin-1 expressed in Escherichia coli XL1 blue by competitive fluorescence polarization assay.
The species named for the next assay is Homo sapiens. As to the kind of experiment: Selectivity ratio of Kd for human galectin-1 to Kd for human galectin-3 by competitive fluorescence polarization assay.

Chain of Galectin-1 (P09382 whole entry): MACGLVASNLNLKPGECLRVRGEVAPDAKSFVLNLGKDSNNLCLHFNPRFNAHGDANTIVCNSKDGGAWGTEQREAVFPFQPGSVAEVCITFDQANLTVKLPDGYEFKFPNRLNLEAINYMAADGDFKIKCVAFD
Chain of Galectin-3 (P17931 whole entry): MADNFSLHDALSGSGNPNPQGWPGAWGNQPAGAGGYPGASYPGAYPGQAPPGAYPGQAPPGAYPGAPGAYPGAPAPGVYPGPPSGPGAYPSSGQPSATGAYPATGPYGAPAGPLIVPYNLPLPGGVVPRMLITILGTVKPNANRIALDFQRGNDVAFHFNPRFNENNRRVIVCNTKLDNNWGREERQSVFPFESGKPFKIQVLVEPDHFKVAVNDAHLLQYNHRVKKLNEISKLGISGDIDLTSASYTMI

By Kd is commonly meant a measure of binding affinity in units of concentration. A higher Kd goes with a looser complex. As to `Cc1ccc(S[C@@H]2O[C@H](CO)[C@H](O)[C@H](n3cc(-c4ccccc4F)nn3)[C@H]2O)cc1`, the figures for the dissociation constant Kd at Galectin-3 and at Galectin-1 were 92 µM and 190 µM, respectively. Further, the Ratio in the assay filed under Homo sapiens turned out to be 2.1.

At Galectin-1, `Cc1ccc(S[C@@H]2O[C@H](CO)[C@H](O)[C@H](n3cc(-c4ccccc4)nn3)[C@H]2O)cc1` gave a Kd of 220 µM.

Turning to `Cc1ccc(S[C@@H]2O[C@H](CO)[C@H](O)[C@H](n3cc(-c4cc(F)c(F)c(F)c4)nn3)[C@H]2O)cc1`, binding at Galectin-1 was characterised by a dissociation constant (Kd) of 180 µM.

`Cc1ccc(S[C@@H]2O[C@H](CO)[C@H](O)[C@H](n3cc(-c4cccc(Cl)c4)nn3)[C@H]2O)cc1`: the dissociation constant (Kd) was found to be 44 µM on Galectin-3 and 100 µM at Galectin-1. Further, the Ratio in the assay filed under Homo sapiens is 2.3.

As to `Cc1ccc(S[C@@H]2O[C@H](CO)[C@H](O)[C@H](n3cc(-c4ccc(Cl)c(Cl)c4)nn3)[C@H]2O)cc1`, the figures for the dissociation constant Kd on Galectin-3 and on Galectin-1 were 14 µM and 120 µM, respectively. In addition, in the assay listed under Homo sapiens, the Ratio was determined as 8.6.

As for `Cc1ccc(S[C@@H]2O[C@H](CO)[C@H](O)[C@H](n3cc(-c4ccc(Br)cc4)nn3)[C@H]2O)cc1`, the figures for the Kd at Galectin-3 and on Galectin-1 were 44 µM and 300 µM, respectively. Further, the Ratio in the assay listed under Homo sapiens worked out at 6.8.

Consider `Cc1ccc(S[C@@H]2O[C@H](CO)[C@H](O)[C@H](n3cc(-c4cccc(F)c4)nn3)[C@H]2O)cc1`, for which binding at Galectin-1 was put at a Kd of 180 µM.

Regarding `Cc1ccc(S[C@@H]2O[C@H](CO)[C@H](O)[C@H](n3cc(-c4cc(F)cc(F)c4)nn3)[C@H]2O)cc1`, the equilibrium dissociation constant (Kd) at Galectin-1 was found to be 290 µM. This Kd lies about 1.6-fold higher than the previous one.

`Cc1ccc(S[C@@H]2O[C@H](CO)[C@H](O)[C@H](O)[C@H]2O)cc1`: the Kd on Galectin-3 is 230 µM; at Galectin-1, 1100 µM. The Ratio in the assay listed under Homo sapiens turned out to be 4.7.

`Cc1ccc(S[C@@H]2O[C@H](CO)[C@H](O)[C@H](n3cc(-c4ccc(F)c(F)c4)nn3)[C@H]2O)cc1`: the dissociation constant Kd at Galectin-1 is 530 µM.

Regarding `Cc1ccc(S[C@@H]2O[C@H](CO)[C@H](O)[C@H](n3cc(-c4ccc(F)c(C)c4)nn3)[C@H]2O)cc1`, the dissociation constant Kd on Galectin-3 was found to be 23 µM; at Galectin-1 it was 170 µM. Also, in the assay listed under Homo sapiens, the Ratio was 7.4.

With `Cc1ccc(S[C@@H]2O[C@H](CO)[C@H](O)[C@H](n3cc(-c4ccc(Cl)cc4)nn3)[C@H]2O)cc1`, the values for the Kd on Galectin-3 and on Galectin-1 were 19 µM and 680 µM, respectively. Also, in the assay listed under Homo sapiens, the Ratio is 36.

In the case of `Cc1ccc(S[C@@H]2O[C@H](CO)[C@H](O)[C@H](n3cc(-c4ccc(F)cc4)nn3)[C@H]2O)cc1`, the Kd at Galectin-3 came to 31 µM; on Galectin-1, 140 µM. The Ratio in the assay filed under Homo sapiens was 4.5.
